Data from PubChem BioAssay (NCI).
Where “and” joins values, the source holds several entries; their conditions need not be identical. Equal values may be shown once.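 Five concentrations, 48 hours, 96-well plates. Abbreviation: GI50, concentration required for 50% inhibition of growth. TGI is the concentration that stops growth completely.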

Key:
Assay in all cases: inhibition of tumour cell growth, NCI panel, 48 h
[1] = test system: BT-549 breast
[2] = test system: HT29 colon
[3] = test system: NCI-H226 lung
[4] = test system: NCI-H23 lung
[5] = test system: OVCAR-3 ovarian
[6] = test system: OVCAR-5 ovarian
[7] = test system: RPMI-8226 leukemia
[8] = test system: SF-295 CNS
[9] = test system: SN12C renal
[10] = test system: SNB-19 CNS

SMILES | GI50 [1] | TGI [1] | GI50 [2] | TGI [2] | GI50 [3] | TGI [3] | GI50 [4] | TGI [4] | GI50 [5] | TGI [5] | GI50 [6] | TGI [6] | GI50 [7] | TGI [7] | GI50 [8] | TGI [8] | GI50 [9] | TGI [9] | GI50 [10] | TGI [10]
C=C1C(=O)O[C@H]2[C@H]1CC/C(COC(=O)CCCc1c[nH]c3ccccc13)=C\CC[C@@]1(C)O[C@@H]21 | 1370 nM | 3.06 µM | 1710 nM | 3.37 µM | 2040 nM | 4.38 µM | 1720 nM | 3.47 µM | 1530 nM | 3.02 µM | 1890 nM | 3.98 µM | 2310 nM | 6.09 µM | 5690 nM | 19 µM | 1900 nM | 4.44 µM | 2590 nM | 7.87 µM
C=C1C(=O)O[C@H]2[C@H]1CC/C(COC(=O)OC/C1=C/CC[C@@]3(C)O[C@H]3[C@H]3OC(=O)[C@@H](CN(C)C)[C@@H]3CC1)=C\CC[C@@]1(C)O[C@@H]21 | 1410 nM | 2.8 µM | 996 nM | 2.47 µM | 2650 nM | 10 µM | 2860 nM | 10.2 µM | 501 nM | 1.7 µM | 2130 nM | 5.21 µM | 372 nM | 1.94 µM | 12100 nM | 24.9 µM | 2790 nM | 10.2 µM | 4670 nM | 18.3 µM
CCCCCCCCCCCCCCCCOP(=O)([O-])OCC[N+](C)(C)C | 1630 nM | 5.87 µM and 17.8 µM | 390 nM |  | 1590 nM |  | 3170 nM | 13.3 µM and 65.3 µM | 3740 nM | 14.8 µM and 48.4 µM | 735 nM | 4.04 µM and 24.9 µM | 390 nM |  |  | 53 µM | 2740 nM | 10.7 µM and 56.6 µM | 1210 nM | 
Nc1ccc(COC(O)CN2CCCCC2)cc1[N+](=O)[O-] (stereo not given) |  | > 100 µM |  | > 100 µM |  | > 100 µM |  | > 100 µM |  | > 100 µM |  | > 100 µM |  | > 100 µM |  | > 100 µM |  | > 100 µM |  | > 100 µM
Cn1nc(C(F)(F)F)c(-c2cc(C(F)(F)F)cc(C(F)(F)F)c2)c1-c1ccc(OCc2ccc(Cl)cc2)cc1O | 1670 nM | 3.33 µM | 2900 nM | 10.6 µM | 2100 nM | 5.67 µM | 1640 nM | 6.93 µM | 2270 nM | 10.7 µM | 3290 nM | 15 µM | 2260 nM | 7.22 µM | 2310 nM | 7.3 µM | 1960 nM | 10.3 µM | 2780 nM | 14.8 µM
O=C(c1ccco1)c1c(C(F)(F)F)n([O-])c2cc(C(F)(F)F)ccc2[n+]1=O | 486 nM | 1.09 µM | 1250 nM | 2.84 µM | 1770 nM | 3.58 µM | 1150 nM | 2.62 µM | 1430 nM | 3.13 µM | 1860 nM | 3.39 µM | 455 nM | 1.19 µM | 1290 nM | 2.83 µM | 1290 nM | 3.45 µM | 1470 nM | 2.99 µM
CCCCCCCC(=O)SCC/C=C/[C@@H]1CC(=O)NCc2nc(cs2)C2=N[C@@](C)(CS2)C(=O)N[C@@H](C(C)C)C(=O)N1 | 60.4 nM | > 66.8 µM | < 10 nM | 0.0499 µM | 906 nM | 22.2 µM | 39.9 nM | 20.8 µM | 15 nM | 0.806 µM | 11.8 nM | > 100 µM | 28.3 nM | > 100 µM | 39.2 nM | 0.402 µM | 34 nM | > 100 µM | 41.9 nM | > 41.1 µM
COc1cc(OC)c(OC)cc1/C=C/c1cnnc2ccccc12 |  | > 10 µM |  | > 10 µM |  | > 10 µM |  | > 10 µM |  | > 10 µM |  | > 10 µM |  | > 10 µM |  | > 10 µM |  | > 10 µM |  | > 10 µM
CC([C@H]1CC=C2C3CCC4=C[C@@H](N(C)C)CC[C@]4(C)C3CC[C@@]21C)N(C)C (stereo not given in full) | 3540 nM | 15.4 µM | 455 nM | 2.11 µM | 4520 nM | 21.5 µM | 3150 nM | 14.8 µM | 2450 nM | 8.74 µM | 6230 nM | 19.5 µM | 1910 nM | 13 µM | 1790 nM | 4.35 µM | 2540 nM | 12.1 µM | 7570 nM | 20.4 µM
Cc1ccc2c(c1)C(=O)c1c-2c(OCCCN(C)C)nc2ccccc12 | 6020 nM | 20.2 µM | 710 nM | 3.33 µM | 2490 nM | 13.7 µM | 1660 nM | 4.48 µM | 5720 nM | 19.8 µM | 1470 nM | 3.65 µM | 2710 nM | 7.93 µM | 2870 nM | 14.1 µM | 2670 nM | 17.7 µM | 2810 nM | 15.1 µM
O=C(Nc1ccc(F)cc1)Nc1ccc(Br)c(C(F)(F)F)c1 | 2050 nM | 7.4 µM | 2300 nM | 10.9 µM | 2730 nM | 11.1 µM | 2040 nM | 9.5 µM | 1650 nM | 11.6 µM | 2550 nM | 10.8 µM | 1030 nM | 4.96 µM | 1390 nM | 5.62 µM | 2910 nM | 11.5 µM | 3420 nM | 15.6 µM
Cc1[nH]c(N)nc(=S)c1CCC(=O)O |  | > 100 µM |  | > 100 µM |  | > 100 µM |  | > 100 µM |  | > 100 µM |  | > 100 µM |  | > 100 µM |  | > 100 µM |  | > 100 µM |  | > 100 µM
C=C1SC(=Nc2ccccc2Cl)N(C(=O)c2sc3ccccc3c2Cl)C12CCCCC2 | 70400 nM | > 100 µM | 6710 nM | > 100 µM | 40000 nM | > 100 µM | 4430 nM | > 100 µM | 6560 nM | 93.4 µM | 35900 nM | > 100 µM | 3810 nM | 98.2 µM | 2310 nM | 23 µM | 6990 nM | > 100 µM | 7560 nM | > 100 µM
